DBAASP
Values after ≈ are worked out from the molar mass of the structure shown. Values joined by “and” are separate entries in the source; they are usually repeats but may differ in a detail not shown here. Identical values can stand only once. Values belong to the molecule of their own block, whether it stands above or below them.

What was measured:
Assay in all cases: ≥ marks a high value that may be exact or a test limit, other limits are often not marked, values filed in µg/mL are converted to µM
[1] = test system: Candida parapsilosis CGMCC 2.3989
[2] = test system: Salmonella enterica subsp. enterica serovar Typhimurium C77-31
[3] = test system: Staphylococcus aureus ATCC 43300
[4] = test system: Salmonella enterica subsp. enterica serovar Typhimurium ATCC 14028
[5] = test system: Staphylococcus aureus ATCC 25923
[6] = test system: Pseudomonas aeruginosa ATCC 27853
[7] = test system: Escherichia coli K99
[8] = test system: Salmonella enterica subsp. enterica serovar Pullorum ATCC 7913
[9] = test system: Escherichia coli K88
[10] = test system: Candida tropicalis CGMCC 2.1975
[11] = test system: Staphylococcus epidermidis ATCC 12228
[12] = test system: Candida albicans CGMCC 2.2086
[13] = test system: Escherichia coli 078
[14] = test system: Escherichia coli UB1005
[15] = test system: Lactococcus lactis MG1363
[16] = test system: Escherichia coli INV-a
[17] = test system: Escherichia coli O157:H7 CICC 21530
[18] = test system: Escherichia coli ATCC 25922
[19] = test system: Salmonella enterica subsp. enterica serovar Choleraesuis CVCC 503
[20] = test system: Salmonella enterica subsp. enterica serovar Pullorum C79-13
[21] = test system: Lacticaseibacillus rhamnosus 1.0911
[22] = test system: Lacticaseibacillus rhamnosus 1.0936
[23] = test system: Staphylococcus aureus ATCC 29213
[24] = test system: Streptococcus agalactiae BNCC 185941
[25] = test system: Pseudomonas aeruginosa PAO1
[26] = test system: Lacticaseibacillus rhamnosus 8014
[27] = test system: Lacticaseibacillus rhamnosus 1.9021
[28] = test system: Escherichia coli KF130
[29] = test system: Stenotrophomonas maltophilia ATCC 13637
[30] = test system: Pseudomonas aeruginosa H187
[31] = test system: Pseudomonas aeruginosa Z61
[32] = test system: Pseudomonas aeruginosa H374
[33] = test system: Escherichia coli KF111
[34] = test system: Staphylococcus epidermidis
[35] = test system: Mycobacterium tuberculosis H37Rv
[36] = test system: Acinetobacter calcoaceticus ATCC 23055
[37] = test system: Enterobacter cloacae C601
[38] = test system: Pseudomonas aeruginosa K799
[39] = test system: Enterobacter cloacae ATCC 13047
[40] = test system: Corynebacterium xerosis
[41] = test system: Listeria monocytogenes NCTC 7973
[42] = test system: Staphylococcus haemolyticus
[43] = test system: Enterococcus faecalis C625
[44] = test system: Burkholderia cepacia ATCC 25416
[45] = test system: Staphylococcus aureus SAP 0017
[46] = test system: Staphylococcus aureus K147
[47] = test system: Salmonella enterica subsp. enterica serovar Typhimurium ATCC 14028s
[48] = test system: Candida albicans CAN105
[49] = test system: Pseudomonas aeruginosa H744
[50] = test system: Pseudomonas aeruginosa H547
[51] = test system: Enterococcus faecalis ATCC 29212
[52] = test system: Streptococcus pyogenes ATCC 19615
[53] = test system: Acinetobacter calcoaceticus C402
[54] = test system: Legionella pneumophila Lens

Structure (SMILES): CC[C@H](C)[C@H](NC(=O)[C@H](CCCN=C(N)N)NC(=O)[C@H](C)NC(=O)[C@H](C)N)C(=O)N[C@H](C(=O)N[C@@H](CC(C)C)C(=O)N[C@@H](CCCN=C(N)N)C(=O)N[C@H](C(=O)N[C@@H](CCCN=C(N)N)C(=O)N[C@@H](Cc1ccccc1)C(=O)N[C@@H](CCCN=C(N)N)C(N)=O)[C@@H](C)O)[C@@H](C)CC [AARIILRTRFR]
MIC [1]: ≥ 64 µM
MIC [2]: 16 µM (≈ 21.9 µg/mL)
MIC [3]: 16 µM (≈ 21.9 µg/mL)
MIC [4]: 16 µM (≈ 21.9 µg/mL)
MIC [5]: 16 µM (≈ 21.9 µg/mL)
MIC [6]: > 128 µM
MIC [7]: 4 µM (≈ 5.49 µg/mL)
MIC [8]: 8 µM (≈ 11 µg/mL)
MIC [9]: 4 µM (≈ 5.49 µg/mL)
MIC [10]: ≥ 32 µM
MIC [11]: 16 µM (≈ 21.9 µg/mL)
MIC [12]: ≥ 128 µM
MIC [13]: 4 µM (≈ 5.49 µg/mL)
MIC [14]: 4 µM (≈ 5.49 µg/mL)

Structure (SMILES): CC[C@H](C)[C@H](NC(=O)CNC(=O)[C@H](CCCCN)NC(=O)[C@H](Cc1c[nH]c2ccccc12)NC(=O)[C@H](CC(N)=O)NC(=O)[C@H](C)N)C(=O)N[C@@H](C)C(=O)N[C@@H](C)C(=O)N[C@@H](CCSC)C(=O)N[C@@H](C)C(=O)N[C@@H](CCCCN)C(=O)N[C@@H](CCCCN)C(=O)N[C@@H](CC(C)C)C(=O)N[C@@H](CC(C)C)C(N)=O [ANWKGIAAMAKKLL]
MIC [15]: 18 µM (≈ 27.3 µg/mL)
MIC [16]: ≥ 33 µM

Structure (SMILES): CC(C)C[C@H](NC(=O)CNC(=O)[C@H](Cc1c[nH]c2ccccc12)NC(=O)CNC(=O)[C@H](CC(C)C)NC(=O)[C@H](CCCCN)NC(=O)[C@@H](N)CCCCN)C(=O)N[C@@H](CCCCN)C(=O)N[C@@H](CCCCN)C(N)=O [KKLGWGLKK]
MIC [17]: ≥ 128 µM
MIC [3]: > 128 µM
MIC [4]: > 128 µM
MIC [18]: > 128 µM
MIC [6]: > 128 µM
MIC [19]: ≥ 128 µM
MIC [20]: ≥ 128 µM
MIC [21]: ≥ 128 µM
MIC [9]: ≥ 128 µM
MIC [22]: ≥ 128 µM
MIC [23]: > 128 µM
MIC [24]: ≥ 128 µM
MIC [25]: > 128 µM
MIC [26]: ≥ 128 µM
MIC [11]: > 128 µM
MIC [27]: ≥ 128 µM

Second part, led by results:

MIC [28]: 0.349 µM (≈ 1 µg/mL)
MIC [29]: 0.699 µM (≈ 2 µg/mL)
MIC [5]: 22.4 µM (≈ 64 µg/mL)
MIC [30]: 11.2 µM (≈ 32 µg/mL)
MIC [6]: 2.8 µM and 4 µM
MIC [31]: 1.05 µM (≈ 3 µg/mL)
MIC [32]: 0.699 µM (≈ 2 µg/mL)
MIC [33]: 0.699 µM (≈ 2 µg/mL)
MIC [34]: 11.2 µM (≈ 32 µg/mL)
MIC [35]: 0.734 µM (≈ 2.1 µg/mL)
MIC [36]: 0.699 µM (≈ 2 µg/mL)
MIC [37]: 2.8 µM and 1.4 µM
MIC [38]: 1.4 µM (≈ 4 µg/mL)
MIC [39]: 0.699 µM (≈ 2 µg/mL)
MIC [40]: 0.349 µM (≈ 1 µg/mL)
MIC [41]: 5.59 µM (≈ 16 µg/mL)
MIC [43]: 5.59 µM and 11.2 µM
MIC [44]: 22.4 µM (≈ 64 µg/mL)
MIC [45]: 22.4 µM (≈ 64 µg/mL)
MIC [46]: 22.4 µM (≈ 64 µg/mL)
MIC [47]: 1.05 µM (≈ 3 µg/mL)
MIC [48]: 22.4 µM (≈ 64 µg/mL)
MIC [49]: 0.699 µM (≈ 2 µg/mL)
MIC [50]: 1.4 µM (≈ 4 µg/mL)
MIC [51]: > 22.4 µM
MIC [52]: 5.59 µM (≈ 16 µg/mL)
MIC [53]: 2.8 µM and 1.4 µM
Structure (SMILES): CC[C@H](C)[C@H](NC(=O)[C@H](CC(C)C)NC(=O)[C@@H]1CCCN1C(=O)[C@H](CCCCN)NC(=O)[C@H](C)NC(=O)[C@@H](NC(=O)[C@@H](NC(=O)[C@@H](NC(=O)[C@@H](NC(=O)[C@H](CCCCN)NC(=O)[C@H](CCCCN)NC(=O)[C@H](C)NC(=O)[C@H](C)NC(=O)[C@H](CO)NC(=O)[C@@H](NC(=O)[C@H](CC(C)C)NC(=O)[C@H](CCCCN)NC(=O)[C@H](CCCCN)NC(=O)[C@@H](NC(=O)[C@H](Cc1ccccc1)NC(=O)[C@H](CO)NC(=O)[C@H](CCCCN)NC(=O)[C@H](Cc1c[nH]c2ccccc12)NC(=O)[C@@H](N)CCCCN)[C@@H](C)CC)[C@@H](C)O)C(C)C)C(C)C)[C@@H](C)O)[C@@H](C)O)C(=O)N[C@@H](CO)C(=O)N[C@@H](CO)C(=O)O [KWKSFIKKLTSAAKKVVTTAKPLISS]
MIC [42]: 22.4 µM (≈ 64 µg/mL)

MIC [54]: 1.3 µM (≈ 3.12 µg/mL)
Structure (SMILES): CC[C@H](C)[C@H](NC(=O)[C@H](CC(C)C)NC(=O)CNC(=O)[C@H](CCCCN)NC(=O)[C@@H](NC(=O)[C@@H](NC(=O)[C@H](CCC(=O)O)NC(=O)[C@@H](NC(=O)[C@@H](NC(=O)[C@H](CCCCN)NC(=O)[C@H](C)NC(=O)[C@@H](NC(=O)[C@@H](NC(=O)CNC(=O)[C@H](C)NC(=O)[C@@H](N)CCSC)C(C)C)[C@@H](C)CC)[C@@H](C)CC)C(C)C)[C@@H](C)CC)C(C)C)C(=O)N[C@@H](CC(=O)O)C(=O)N[C@@H](CCC(N)=O)C(=O)N[C@@H](Cc1ccccc1)C(=O)N[C@H](C(=O)N[C@@H](CCC(N)=O)C(=O)N[C@@H](CCCCN)C(=O)O)[C@@H](C)O [MAGVIAKIVEIVKGLIDQFTQK]
